Laboratory results: US20150175666A1, “PEPTIDES DERIVED FROM HIV GP41 FOR TREATING T-CELL MEDIATED PATHOLOGIES” (Yeda Research and Development Co. Ltd., priority 2012, published 2015)
Like-named read-outs stand apart in the source and are kept apart here. Square brackets hold non-standard residues; d marks the D form. Ends that are not written are not given here. rhodamine = not defined here

How the values were obtained:
[1] = system: MOG35-55-specific murine line T cells (mMOG35-55 T-cells)
[2] = system: T-cell lymphocytes derived from mice spleen cells; assay: Binding of fluorescently labeled peptides to spleen-derived lymphocytes; type: cell-based
Text: Further, the T-cell binding affinity of peptides having the amino acid sequence of […] (SEQ ID NO:2 and 11; all L- and all D-amino acids, respectively) was examined. […] Spleen derived B cell lymphocytes were used as a control.

[3] = system: encephalitogenic MOG35-55 reactive T cells (LNCs); assay: Ex vivo recall response of lymph node cells from MOG35-55/CFA-immunized mice (proliferation, cytokine ELISA); type: in vivo, C57Bl/6J mice
Procedure: (§1) Mice were subcutaneously immunized with 150 μg MOG35-55 emulsified in complete Freund's adjuvant (CFA) containing 150 μg Mt H37Ra with or without 0.5 mg/kg HIV peptides. Ten days post immunization, draining lymph nodes were removed and cultured in triplicate in the presence or absence of antigen, as previously described. The cultures were incubated for 72 h at 37° C. [3H] Thymidine ([…]) was added for an additional 16 h of incubation and the cultures were then harvested and counted using a Beta Counter. Pro-inflammatory cytokine analysis of IFNγ, IL-12, and TNFα were determined by ELISA, 24 h after cell activation, according to standard protocols from PharMingen (San Diego, Calif.), as described previously
as §1, with “described. […]” for “described. The cultures were incubated for 72 h at 37° C. [3H]”, “described previously. […]” for “described previously”

[4] = target: T1, core peptide of TMD from TCRα, CP (GLRILLLKV; SEQ ID NO: 14) (Mus musculus, UniProt P01849); assay: Fluorescent measurements of NBD-labeled core peptide of TCRα TMD in LUV; type: binding; settings: PC:Chol LUV, sequential doses
T1 construct: termed CP (GLRILLLKV); made in house
Procedure: The fluorescence experiments were performed using NBD-labeled core peptides of TCRα (NBD-CP). Fluorescence spectra were obtained at room temperature, with excitation set at 467 nm (10 nm slit) and the emission scan at 500-600 nm (10 nm slits). In a typical experiment, the NBD-CP was first added from a stock solution in DMSO (final concentration of 0.1 μM and a maximum of 0.25% (v/v) DMSO) to a dispersion of PC:Chol LUV (200 μM) in PBS. This was followed by the addition of unlabeled HIV peptides in several sequential doses ranging from 2.5×10-3 μM to 0.4 μM. Fluorescence spectra were obtained before and after the addition of unlabeled HIV peptides. The fluorescence values were corrected by subtracting the corresponding blank (buffer with the same vesicle concentration).
The TCR complex's TMD helices mediate receptor activation through the interactions between basic and acidic residues. […] To investigate this possibility, we utilized NBD fluorescence, which is sensitive to the membrane surroundings; its emission intensity is increased via membrane insertion (Rapaport et al. Embo J. 1995; 14(22):5524-5531). […] Their initial fluorescence emission spectra were first measured in the presence of LUVs alone and then in the presence of several sequential doses of unlabeled peptide and its mutants (SEQ ID NO: 3, 9 and 10) (FIG. 5H).

TCR (Jurkat T cells) = assay: Binding of Rho-labeled peptides to T-cell proteins (cross-linking SDS-PAGE, immunoprecipitation); set-up: species or system human; settings: for fluorescent bands of T-cell proteins bound to Rho-peptide (SDS-PAGE): 1 μM Rho-labeled peptide, formaldehyde cross-linked Jurkat lysate
Sequence of TCR (Jurkat T cells) (P01848 whole entry): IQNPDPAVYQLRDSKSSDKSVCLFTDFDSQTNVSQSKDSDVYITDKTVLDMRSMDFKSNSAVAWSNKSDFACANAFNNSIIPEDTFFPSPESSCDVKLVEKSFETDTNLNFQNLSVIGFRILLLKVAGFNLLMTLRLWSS
Sequence of TCR (Jurkat T cells) (P01850 whole entry, further chain): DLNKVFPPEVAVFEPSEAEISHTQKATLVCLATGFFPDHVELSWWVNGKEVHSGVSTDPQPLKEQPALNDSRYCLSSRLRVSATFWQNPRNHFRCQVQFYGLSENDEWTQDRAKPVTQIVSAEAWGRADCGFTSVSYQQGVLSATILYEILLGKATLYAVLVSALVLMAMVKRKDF
Procedure: Jurkat T cells (4×10^6) were incubated over night at 37° C. in the presence of 1 μM rhodamine-labeled peptide and lysed. The lysate was then incubated overnight with TCRα or GFP antibodies (2 μg) following 2 hours of incubation with protein G-plus Agarose beads (Santa Cruz Biotechnology Inc.). Next, the beads were washed with lysis buffer and boiled for 10 minutes; the protein supernatant was then run in a 12% SDS-PAGE. The presence of coimmunoprecipitated peptide was detected by the Typhoon 9400 variable mode imager.
Jurkat T cells (4×10^6) were incubated over night at 37° C. in the presence of 1 μM rhodamine-labeled pep6 (SEQ ID NO:3) and its mutant control peptide. Next, the cells were washed with PBS, crosslinked with 1% formaldehyde and after 10 minutes a 125 mM glycine solution was added to stop the reaction. Formaldehyde is a well known cross-linking agent used in the characterization of protein-protein interactions. The cells were lysed for 30 minutes on ice in a 300 μl lysis buffer followed by a sonication step. Insoluble material was removed by centrifugation at 3000×g for 4 min at 4° C. The proteins were resolved by 12% SDS-PAGE and proteins bound to the fluorescently labeled peptide were detected by the Typhoon 9400 variable mode imager (Amersham Biosciences). Excitation was set at 532 nm, and fluorescence emission was collected by a TAMRA filter (580 nm±30 nm) at 100 μm resolution and 600 volts. The protein loading amount was confirmed by Western blot to actin.
To investigate the interaction of the peptide with the TCR, 1 μM fluorescently labeled Rho-peptides were incubated with Jurkat T cells and then cross-linked with formaldehyde to maintain the interaction with their target proteins. The cross-linked T-cell lysate was resolved by SDS-PAGE and proteins bound to Rho-peptides were detected by the fluorescence of rhodamine (FIG. 5B). […] Western blot for actin was used to assure equal loading. […] Bound proteins were separated by SDS-PAGE and analyzed for the presence of the fluorescently-labeled peptides.

[5] = system: TCRα on antigen-stimulated mMOG35-55-specific line T cells; assay: Co-localization of Rho-labeled peptides with TCRα (confocal microscopy); type: cell-based, murine; settings: activated T cells
Sequence of TCRα on antigen-stimulated mMOG35-55-specific line T cells (P01849 whole entry): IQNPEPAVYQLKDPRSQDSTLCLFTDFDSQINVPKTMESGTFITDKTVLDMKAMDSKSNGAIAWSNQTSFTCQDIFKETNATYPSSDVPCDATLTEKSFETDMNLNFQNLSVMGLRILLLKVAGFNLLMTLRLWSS
Procedure: FITC excitation was set at 488 nm, with the laser set at 5% power and fluorescence was recorded from 502-525 nm. Rhodamine excitation was set at 559 nm, with the laser set at 1% power and the fluorescence data were collected above 580 nm. Each cell was imaged for TCRα staining (denoted in green) and for peptide staining (denoted in red). Using ImageJ, the images (n=20) were set to binary color and the two revised pictures were used to create a new picture of only what merged between them. The merged picture was divided by the revised red picture to give the percentage of co-localization.
Co-localization of the peptide with the TCR was assessed utilizing confocal microscopy (FIG. 5 D-E). Antigen-stimulated mMOG35-55-specific line T cells were probed with antibodies against TCRα followed by staining with secondary FITC-labeled antibodies (left column) and with the Rho-labeled peptide (SEQ ID NO: 3) (middle column). To evaluate the co-localization between the molecules, a merged image was produced (right column). […] As a control, AMP (SEQ ID NO: 13), a non-related antimicrobial peptide (Papo et al. J Biol Chem. 2005; 280(11):10378-10387), was labeled with rhodamine and its localization on T cells was detected.

[6] = MOG35-55 and APCs, peptides 2.5-20 μM

Compound: CC[C@H](C)[C@H](NC(=O)[C@H](CCC(N)=O)NC(=O)[C@H](CCC(=O)O)NC(=O)[C@H](CC(C)C)NC(=O)[C@H](CO)NC(=O)[C@H](CCCCN)NC(=O)[C@H](CC(N)=O)NC(=O)[C@H](N)CO)C(=O)N[C@@H](Cc1c[nH]c2ccccc12)C(=O)N[C@@H](CC(N)=O)C(=O)N[C@@H](Cc1c[nH]cn1)C(=O)N[C@H](C(=O)N[C@H](C(=O)N[C@@H](Cc1c[nH]c2ccccc12)C(=O)N[C@@H](CCSC)C(=O)N[C@@H](CCC(=O)O)C(=O)N[C@@H](Cc1c[nH]c2ccccc12)C(=O)N[C@H](CC(=O)O)C(N)=O)[C@@H](C)O)[C@@H](C)O [D-PEP 6, SNKSLEQIWNHTTWMEWD]
- IC50 [1]: 3 µM

Compound: WNHTTWMEWD-NH2 [SHORT PEP 6, WNHTTWMEWD]
- binding to T-cell lymphocytes versus B cell lymphocytes [2]: preferably bind T-cell lymphocytes
- ex vivo recall proliferative response of LNCs to MOG35-55 ([3]; mouse, in vivo): down-regulation
- IC50 [1]: 5 µM
- inhibition of T-cell proliferation (potency in words) [1]: still exhibited potent activity

Compound: SNKSLEQIWNHTTWMGWG [SEQ ID NO: 10]
- fluorescence emission maxima of NBD-CP upon addition of unlabeled peptide [4]: only a slight increase

Compound: Rho-pep 6: rhodamine N-terminally labeled pep 6 (SEQ ID NO: 3) (rhodamine-SNKSLEQIWNHTTWMEWD-NH2; reading uncertain)
- fluorescent bands of T-cell proteins bound to Rho-peptide (SDS-PAGE) (TCR (Jurkat T cells)): only one major fluorescent band
- coimmunoprecipitation with TCRα antibodies (TCR (Jurkat T cells); Jurkat T cells, GFP antibody as control): coprecipitated with the TCR

Compound: Rho-AMP: AMP (SEQ ID NO: 13) labeled with rhodamine (KLKLLKLLKLLKLLK; also: rhodamine label, site not given here)
- co-localization with TCRα molecules [5]: found throughout the cell membrane

Compound: TTAVPWNASWSNKSLEQI-NH2 [PEP 1, TTAVPWNASWSNKSLEQI]
- IC50 [1]: > 40 µM
- inhibition of T-cell proliferation (potency in words) [1, 6]: not active

Compound: LQARILAVERYLKDQQL [ISU, LQARILAVERYLKDQQL, reference compound]
- IC50 [1]: 15 µM

Compound: WNASWSNKSLEQIWNHT-NH2 [PEP 8, WNASWSNKSLEQIWNHT]
- IC50 [1]: 15 µM

Compound: WNHTTWMEWD ([dW][dN][dH][dT][dT][dW][dM][dE][dW][dD]) [SEQ ID NO: 11]
- binding to T-cell lymphocytes versus B cell lymphocytes [2]: preferably bind T-cell lymphocytes
- ex vivo recall proliferative response of LNCs to MOG35-55 ([3]; 0.5 mg/kg peptide, day 10 post immunization): down-regulation

Compound: EQIWNHTTWMEWDREINN-NH2 [SHIFTED PEP 6, EQIWNHTTWMEWDREINN]
- IC50 [1]: 10 µM
- inhibition of T-cell proliferation (potency in words) [1, 6]: still exhibited potent activity

Compound: SNKSLEQIGNHTTGMEGD [SEQ ID NO: 9]
- fluorescence emission maxima of NBD-CP upon addition of unlabeled peptide [4]: only a slight increase
- fluorescent bands of T-cell proteins bound to Rho-peptide (SDS-PAGE) (TCR (Jurkat T cells)): neither observed
